These results are taken from PubChem BioAssay (NCI).

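Briefly, cells in 96-well plates were exposed to five compound concentrations for 48 h, and endpoints were estimated by linear interpolation. TGI marks complete inhibition of growth.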 Bounds are passed on as bounds.

Test systems include SW-620 colon; UACC-257 melanoma; HL-60(TB) leukemia; A498 renal; SK-MEL-2 melanoma; OVCAR-8 ovarian; A549 NSCLC; T-47D breast; CCRF-CEM leukemia; NCI/ADR-RES ovarian; BT-549 breast.
Assay in all cases: growth of human tumour cells (NCI), 48 h

For the compound `Cc1cc2c(s1)C(=O)c1sccc1C2=O`, the TGI in the assay on SW-620 colon is 0.719 µM; in the assay on UACC-257 melanoma it was 0.385 µM; in the assay on HL-60(TB) leukemia, above 100 µM; in the assay on A498 renal it was 3.17 µM; with SK-MEL-2 melanoma, 1.33 µM; with OVCAR-8 ovarian it was 1.56 µM. The TGI in the assay with A549 NSCLC is 2.03 µM; in the assay with T-47D breast it was 3.02 µM; in the assay on CCRF-CEM leukemia, above 100 µM; in the assay on NCI/ADR-RES ovarian, 1.64 µM.
For the compound `C[C@]12CC(c3ccccc3O1)C(C(=O)NC13CC4CC(CC(C4)C1)C3)C(=O)N2` (stereo not given in full), the TGI is above 100 µM with SW-620 colon; 61.8 µM with BT-549 breast; above 100 µM in the assay on UACC-257 melanoma; above 100 µM in the assay with A498 renal; 43 µM in the assay on SK-MEL-2 melanoma; 93.2 µM in the assay on OVCAR-8 ovarian. The results for the TGI in the assay with A549 NSCLC, with CCRF-CEM leukemia and in the assay on NCI/ADR-RES ovarian were 71.7 µM, 61.1 µM and 55.6 µM, respectively.
For the compound `Cc1cc2oc(=O)[nH]c(=S)c2c(C)c1C`, the TGI in the assay on SW-620 colon, in the assay on UACC-257 melanoma, with HL-60(TB) leukemia, in the assay on A498 renal, in the assay with SK-MEL-2 melanoma and in the assay with OVCAR-8 ovarian was above 100 µM in each case. Besides, the TGI with A549 NSCLC and in the assay on CCRF-CEM leukemia was above 100 µM in each case.
As for `CNC(=O)c1n[nH][nH]c1=O`, the TGI with SW-620 colon, with UACC-257 melanoma, with HL-60(TB) leukemia, in the assay with A498 renal, with SK-MEL-2 melanoma and in the assay on OVCAR-8 ovarian was above 100 µM throughout. For the same compound, the TGI in the assay on A549 NSCLC, in the assay on T-47D breast, in the assay with CCRF-CEM leukemia and in the assay with NCI/ADR-RES ovarian was above 100 µM throughout.
Turning to `CC(=O)c1ccc2c(c1)oc(=O)n2CCN1CCCCC1`, the TGI in the assay with SW-620 colon, with BT-549 breast, with UACC-257 melanoma, in the assay on HL-60(TB) leukemia, with A498 renal and in the assay with SK-MEL-2 melanoma was above 100 µM in each case. Moreover, the TGI in the assay on OVCAR-8 ovarian, in the assay on CCRF-CEM leukemia and in the assay on NCI/ADR-RES ovarian was above 100 µM each time.
`COc1ccc(CN(CCc2c[nH]c3ccccc23)Cc2ccc(OC)cc2)cc1`: the TGI in the assay on SW-620 colon is above 22 µM; with BT-549 breast, 11.4 µM; in the assay on UACC-257 melanoma, 14.3 µM; in the assay with A498 renal, 9.3 µM; in the assay with SK-MEL-2 melanoma, 8.29 µM; in the assay on A549 NSCLC it was above 31.7 µM. In addition, the values for the TGI with CCRF-CEM leukemia and in the assay with NCI/ADR-RES ovarian were above 100 µM and 9.79 µM, respectively.
`CC(C)(C)N1NC1C1NN1C(C)(C)C` (stereo not given): the TGI with SW-620 colon, in the assay on UACC-257 melanoma, with A498 renal, in the assay on SK-MEL-2 melanoma, with OVCAR-8 ovarian and in the assay on A549 NSCLC was above 100 µM in each case. Moreover, the TGI in the assay with T-47D breast, with CCRF-CEM leukemia and with NCI/ADR-RES ovarian was above 100 µM each time.
Take `CCOC(=O)CC[C@@H](NC(=O)c1ccc(N[C@@H]2c3cc4c(cc3C(c3cc(OC)c(O)c(OC)c3)C3C(=O)OC[C@@H]32)OCO4)cc1)C(=O)OCC` (stereo not given in full): the TGI with UACC-257 melanoma is 0.724 µM; with HL-60(TB) leukemia, 0.05 µM; in the assay on A498 renal it was 0.0668 µM; in the assay with SK-MEL-2 melanoma, 0.235 µM; in the assay on CCRF-CEM leukemia, above 10 µM.
With `COc1ccc(C2C(Cl)C(=O)N2NC(=O)Cc2ccccc2)cc1` (stereo not given), the TGI in the assay on SW-620 colon, in the assay with UACC-257 melanoma, with HL-60(TB) leukemia, in the assay on SK-MEL-2 melanoma, in the assay on OVCAR-8 ovarian and with A549 NSCLC was above 100 µM throughout. This compound registered a TGI with CCRF-CEM leukemia above 100 µM.
Take `O=C(Cc1ccccc1)c1ccc2[nH]c(=O)oc2c1`: the TGI in the assay with SW-620 colon, in the assay with BT-549 breast, in the assay on UACC-257 melanoma, in the assay with HL-60(TB) leukemia, in the assay with A498 renal and with SK-MEL-2 melanoma was above 100 µM each time. The TGI is above 100 µM with OVCAR-8 ovarian, above 100 µM in the assay on CCRF-CEM leukemia and 79 µM in the assay with NCI/ADR-RES ovarian.
For `c1ccc2sc(C3(N4CCCCC4)CCCC3)cc2c1`, the TGI with SW-620 colon was 24.1 µM; with BT-549 breast, 27.5 µM; with UACC-257 melanoma, 29.7 µM; in the assay with HL-60(TB) leukemia it was 19.1 µM; in the assay with A498 renal, 25.7 µM; with OVCAR-8 ovarian, 24.7 µM. Also, the TGI with A549 NSCLC was found to be 22.3 µM; with CCRF-CEM leukemia it was 17.7 µM; in the assay on NCI/ADR-RES ovarian, 24.8 µM.
Consider `COC(=O)CC1C(=O)OCc2c1cc1n(c2=O)Cc2c-1nc1ccccc1c2OC` (stereo not given), for which the TGI in the assay on SW-620 colon, in the assay with UACC-257 melanoma, with HL-60(TB) leukemia, in the assay on A498 renal, with SK-MEL-2 melanoma and with OVCAR-8 ovarian was above 100 µM in each case. Further, the TGI in the assay with A549 NSCLC and in the assay on CCRF-CEM leukemia was above 100 µM in each case.
For `COc1cc2[nH]c(-c3cccc(N(C)C)c3)cc(=O)c2cc1OC`, the TGI is above 100 µM with SW-620 colon; above 100 µM in the assay with UACC-257 melanoma; above 24.6 µM in the assay on HL-60(TB) leukemia; above 100 µM in the assay on A498 renal; above 100 µM with OVCAR-8 ovarian; above 100 µM with A549 NSCLC. In the assay on CCRF-CEM leukemia, this compound had a TGI above 100 µM.
For `Cc1ccc(S(=O)(=O)NNC(=S)Nc2cccc3ccccc23)cc1`, the TGI with SW-620 colon is above 100 µM; with UACC-257 melanoma, 52.1 µM; with HL-60(TB) leukemia it was above 100 µM; with A498 renal, 99.5 µM; in the assay with SK-MEL-2 melanoma, above 100 µM; with OVCAR-8 ovarian it was above 100 µM. For the same compound, the TGI with A549 NSCLC, in the assay with T-47D breast, in the assay on CCRF-CEM leukemia and in the assay on NCI/ADR-RES ovarian was above 100 µM in each case.
For the compound `CCN(CC)Cc1cc(Nc2c3ccccc3nc3c2[nH]c2ccccc23)ccc1O`, the TGI came out at 3.43 µM with SW-620 colon; 4.45 µM in the assay on UACC-257 melanoma; 2.97 µM in the assay with A498 renal; 2.75 µM in the assay on SK-MEL-2 melanoma; 3.11 µM with OVCAR-8 ovarian; 2.93 µM in the assay on A549 NSCLC.
Regarding `CCC1(N=[N+]=[N-])C(=O)Nc2cc(C)ccc2C1=O` (stereo not given), the TGI in the assay with SW-620 colon is above 100 µM; with UACC-257 melanoma it was above 100 µM; in the assay on HL-60(TB) leukemia, 53.6 µM; with A498 renal it was above 100 µM; with SK-MEL-2 melanoma, above 100 µM; in the assay with OVCAR-8 ovarian it was above 100 µM. The TGI in the assay on A549 NSCLC and with CCRF-CEM leukemia was above 100 µM each time.
Regarding `O=C(c1ccncc1)n1nc(-c2ccccc2)c(N=Nc2ccc([N+](=O)[O-])cc2)c1-c1ccccc1`, the TGI in the assay with SW-620 colon, in the assay with UACC-257 melanoma, with HL-60(TB) leukemia, with A498 renal, in the assay with SK-MEL-2 melanoma and with OVCAR-8 ovarian was above 100 µM each time. In addition, the TGI in the assay on A549 NSCLC was above 100 µM.
For the compound `O=C1CCCC2=C1CC1=C(CCCC1=O)N2c1cccc2ccccc12`, the TGI in the assay with SW-620 colon, in the assay with BT-549 breast, in the assay with HL-60(TB) leukemia, with A498 renal, in the assay with OVCAR-8 ovarian and in the assay with A549 NSCLC was above 100 µM throughout. Moreover, the TGI in the assay on CCRF-CEM leukemia and with NCI/ADR-RES ovarian was above 100 µM in each case.
For `CSc1cc(Cl)c(C)cc1S(=O)(=O)NC(=O)NNc1ccc(F)c(Cl)c1`, the TGI in the assay with SW-620 colon, in the assay on A498 renal, in the assay with SK-MEL-2 melanoma, in the assay on OVCAR-8 ovarian, in the assay on A549 NSCLC and with T-47D breast was above 100 µM in each case. In addition, the TGI with CCRF-CEM leukemia and with NCI/ADR-RES ovarian was above 100 µM each time.
With `CNC(=O)CCNC(=O)CCC(=O)OC`, the TGI in the assay on SW-620 colon, in the assay with A498 renal, with SK-MEL-2 melanoma, with OVCAR-8 ovarian, in the assay with A549 NSCLC and in the assay on T-47D breast was above 100 µM throughout. In the assay with NCI/ADR-RES ovarian, this compound had a TGI above 100 µM.
Consider `COc1ccc2c3ccc4c(c3n(C)c2c1)C(=O)c1ccccc1C4=O`, for which the TGI in the assay with SW-620 colon, in the assay on UACC-257 melanoma, in the assay with HL-60(TB) leukemia, in the assay with A498 renal, in the assay with OVCAR-8 ovarian and in the assay with A549 NSCLC was above 100 µM each time. Besides, the TGI in the assay with CCRF-CEM leukemia was above 100 µM.
Turning to `COC1OC(CO)C(O)C(OC(=O)c2cc(O)c(O)c(O)c2)C1OC(=O)c1cc(O)c(O)c(O)c1` (stereo not given), the TGI in the assay with SW-620 colon, in the assay on BT-549 breast, with UACC-257 melanoma, in the assay with HL-60(TB) leukemia, in the assay with SK-MEL-2 melanoma and in the assay with OVCAR-8 ovarian was above 100 µM each time. Besides, the TGI with A549 NSCLC, with CCRF-CEM leukemia and in the assay with NCI/ADR-RES ovarian was above 100 µM throughout.
As to `CCC(=O)COc1ccc(NC(NC(=O)C(C(F)(F)F)C(F)(F)F)(C(F)(F)F)C(F)(F)F)cc1`, the TGI was above 100 µM with SW-620 colon; above 100 µM in the assay on UACC-257 melanoma; 56.1 µM in the assay with HL-60(TB) leukemia; above 100 µM in the assay on A498 renal; 95.5 µM in the assay with SK-MEL-2 melanoma; 62.8 µM with OVCAR-8 ovarian. Besides, the TGI with A549 NSCLC was above 100 µM; in the assay on T-47D breast, 68.8 µM; with CCRF-CEM leukemia, 61.8 µM; in the assay on NCI/ADR-RES ovarian, 42.7 µM.
On to `CC1=NN(C(=O)Cc2ccccc2)C(=O)/C1=C\C=C\c1ccccc1`, for which the TGI in the assay on SW-620 colon, with UACC-257 melanoma, with HL-60(TB) leukemia, with SK-MEL-2 melanoma, with OVCAR-8 ovarian and with A549 NSCLC was above 100 µM throughout. Further, the TGI in the assay on CCRF-CEM leukemia is above 100 µM.
